Reference: patent US9771430B2, “Method of treating a metabolic disorder induced by obesity in a subject in need thereof by administering MK2/3 inhibitors” (THE TRUSTEES OF COLUMBIA UNIVERSITY IN THE CITY OF NEW YORK, priority 2011, dated 2017)

What was measured:
[1] = system: ATF4; assay: Nuclear ATF4 in primary mouse hepatocytes; format: cell-based; details: control HCs
Protocol: FIGS. 94A-F: Improvement in Insulin-induced Akt Phosphorylation and Glucose Homeostasis by CaMKII Deficiency are Abrogated by Restoring ATF4. FIG. 94A. HCs from Camk2g^fl/fl mice were transduced with adeno-LacZ or -Cre. 24 h later, cells were incubated with tunicamycin (0.5 μg/ml) or vehicle control for 4 h. Nuclear lysates were immunoblotted for ATF4 and nucleophosmin (Np) as a loading control. FIG. 94B. Nuclear ATF4 and nucleophosmin (Np) were probed in livers from DIO Camk2g^fl/fl mice treated with TBG-Cre or TBG-LacZ or ob/ob mice treated with adeno-LacZ or -K43A-CaMKII. FIG. 94C. HCs from […] were transduced with adeno-LacZ or -Cre and then 4 h later, half of the adeno-Cre transduced cells received adeno-ATF4, while the other half received adeno-LacZ control. After 24 h, the cells were incubated with palmitate and then insulin-induced p-Akt was assayed as in FIG. 92. FIG. 94D. As in FIG. 94C, except that Trb3 mRNA was assayed by RT-qPCR (Bars with different symbols are different from each other and control, p<0.01; mean±S.E.M.). […] Livers were assayed for p-Akt, total Aid, β-actin and nuclear ATF4 and nucleophosmin (Np) by immunoblotting after insulin injection through portal vein. 5 h fasting blood glucose and plasma insulin were assayed after three weeks of treatment (Differing symbols indicate p<0.05; mean±S.E.M.). See also FIG. 100.

[2] = system: CaMKII; format: cell-based, mouse
Protocol: FIG. 1A. CaMKII enzyme activity was assayed in triplicate wells of primary mouse HCs stimulated with 100 nM glucagon (Gluc) or vehicle control (Veh) for the indicated times (*P<0.05 and **P<0.01 vs. Veh; mean±S.E.M.). FIGS. 1B-1J. Extracts of HCs or liver were probed for phospho-CaMKII, total CaMKII, and β-actin by immunoblot assay. FIG. 1B. HCs were incubated with […] glucagon for the indicated times; FIG. 1C. Glucagon was added to HCs that were pre-treated for 1 h with vehicle control (Veh) or 5 μM BAPTA-AM; FIG. 1D. Glucagon was added to HCs that were pre-treated with 0.5 μM xestospongin (XesC) or to HCs from Ip3r1fl/fl mice transduced with adeno-LacZ control or adeno-Cre (bar graph=Ip3r1 mRNA levels); FIG. 1E. Glucagon was added to HCs that were pre-treated for 1 h with vehicle control (Veh) or 10 μM H89. FIG. 1F. […] FIGS. 1G-1J. In vivo experiments. In FIG. 1G, mice were treated for 30 min with 200 μg kg−1 body weight of glucagon i.p., and in FIG. 1H, mice were pre-treated with 10 pmol g−1 xestospongin C or vehicle control i.p. 4 days prior to glucagon treatment. In FIGS. 1I-1J, mice were fed ad libitum or fasted for 12 h, or fasted for 12 h and then re-fed for 4 h.
Total RNA was extracted from hepatocytes using the RNeasy kit (Qiagen). cDNA was synthesized from 2 μg total RNA using oligo (dT) and Superscript II (Invitrogen). Real-time qPCR analysis and western blotting were performed as previously described (Timmins et al., 2009). Nuclear extraction from liver was performed using the Nuclear Extraction Kit from Panomics according to the manufacturer's instructions.
Immunoblot and RT-qPCR assays were performed as previously described (Timmins et al., 2009). Total RNA was extracted from HCs using the RNeasy kit (Qiagen). cDNA was synthesized from 2 μg total RNA using oligo (dT) and Superscript II (Invitrogen). Nuclear extraction from liver was performed using the Nuclear Extraction Kit from Panomics according to the manufacturer's instructions.

[3] = system: IP3R; assay: IP3R activity in FAO hepatocytes (Inositol/ATP-induced calcium release assay); format: cell-based, rat
From the text: FIGS. 49A-S. The role of IP3R in forskolin/glucagon-induced G6Pase/PEPCK in cultured hepatocytes and in fasting blood glucose in vivo. FIG. 49 A,B. FSK-Induced G6Pase and PEPCK is Calcium-Dependent. FIG. 49C-D. IP3R Activity is Required for Forskolin- and Glucagon-Induced G6Pase and PEPCK (FAO rat hepatocyte cell line). FIG. 49E-F. IP3R Activity is Required for Forskolin-Induced G6Pase and PEPCK (primary murine hepatocytes). FIG. 49G-H. IP3R1 Anti-Sense Oligonucleotide Suppresses Forskolin-Induced G6Pase and PEPCK (primary murine hepatocytes). FIG. 49I. Forskolin Activates IP3R Activity in FAO Hepatocytes (Inositol/ATP-Induced Calcium Release Assay). FIG. 49J. The PKA Inhibitor H89 Suppresses Forskolin-Induced IP3R Activation. FIG. 49K-L. IP3R Activity is Required for Forskolin-Induced PGC1a. FIG. 49M-N. Calcineurin Inhibitory Peptide Suppresses Forskolin-Induced G6Pase and PEPCK. FIG. 49O. IP3R Activity is Required for Forskolin-Induced Calcineurin Activation. FIG. 49P-Q. IP3R Activity is Required for Forskolin-Induced TORC2 Dephosphorylation and Nuclear Localization. FIG. 49R. TORC2 Transduction Partially Restores Forskolin-Induced G6Pase in IP3R-Inhibited Hepatocytes. FIG. 49S. Xestospongin C Treatment Reduces Fasting Glucose Levels in C57BL/6J Mice.

[4] = system: cytosolic free calcium; assay: Calcium mobilization in primary hepatocytes (Fura-2 imaging); format: cell-based, mouse; details: co-/pre-treatment with inhibitor
Protocol: Mouse primary hepatocytes were plated on glass coverslips and loaded with 5 μM Fura-2 acetoxymethyl ester (Molecular Probes) in the presence of 0.025% (w/v) pluronic F127 (Sigma-Aldrich) in Media 199 (Mediatech) for 30 minutes. […] The ratio of fluorescence intensity at the two excitation wavelengths was calculated after subtracting background fluorescence. [Ca2+]I (cytosolic free calcium concentration) was calculated using a Fura-2 calcium imaging calibration kit (Invitrogen). Images were collected and analyzed using the MetaFluor software package (Universal Imaging Corp.). Graphs represent average responses from groups of 30-40 individual cells from representative single experiments. Bar graphs represent average responses (fold over average baseline) from 150-200 cells per condition. All experiments were repeated at least three times with similar results.

[5] = system: dach1 and dach2 mRNA; assay: dach1 and dach2 mRNA in primary mouse hepatocytes; format: cell-based; details: WT HCs, 0.5 mM, 6 h
Protocol: FIG. 115. Palmitate induces dach1 and dach2 mRNA levels. Primary HCs from WT mice were treated with 0.5 mM palmitate for 6 h. RNA was assayed for dach1 and dach2 mRNA by RT-qPCR (*p<0.05; mean±S.E.M.).

[6] = system: TRB3; assay: TRB3 levels in primary mouse hepatocytes; format: cell-based; details: control HCs
Protocol: FIGS. 93A-E: Improvement in Insulin-induced Akt Phosphorylation and Glucose Homeostasis by CaMKII Deficiency are Abrogated by Restoring TRB3. FIG. 93A. HCs from Camk2g^fl/fl mice were transduced with adeno-LacZ or -Cre and then 24 h later incubated with BSA or palmitate (0.2 mM) for 19 h. Lysates were immunoblotted for TRB3 and β-actin. FIG. 93B. TRB3 and β-actin were probed in livers from DIO WT mice, Camk2g^−/− mice, or Camk2g^fl/fl mice treated with TBG-LacZ or TBG-Cre. Densitometric quantification of the immunoblot data is shown in the graph (*p<0.05; mean±S.E.M.). FIGS. 93C-E. DIO Camk2g^fl/fl mice were treated with TBG-Cre or TBG-LacZ, and five days later, half of the […] received adeno-TRB3, while the other half received adeno-LacZ control. Livers were assayed for p-Akt, total Aid, TRB3 and β-actin by immunoblotting after fasting the mice for 16 h and then re-feeding them for 4 h. 5 h fasting and fasted-refed blood glucose and plasma insulin were assayed after 4 weeks of treatment (Differing symbols indicate p<0.05; mean±S.E.M.). See also FIG. 99.

[7] = system: Akt; assay: Insulin-induced Akt phosphorylation in palmitate-treated primary mouse hepatocytes; format: cell-based; details: HCs with normal p38 (Ad-LacZ)
Protocol: FIGS. 92A-D. Inhibition of CaMKII or p38α Improves Insulin-induced Akt Phosphorylation in Palmitate-treated Primary Hepatocytes. FIG. 92A. Primary HCs from WT mice were transduced with adeno-LacZ or -K43A-CaMKII at an MOI of 10 and then 24 h later incubated with either BSA control or 0.2 mM palmitate for 19 h, with the last 5 h in serum-free media. The cells were then treated with 100 nM insulin or vehicle control for 5 min, and lysates were probed for p-Akt, total Akt, and β-actin by immunoblot (left panel) or immunoprecipitated for IRS-1 and then assayed by immunoblot for the total level of IRS-1 or for phospho-Tyr (PY) (right panel). FIG. 92B. HCs from Mapk14^fl/fl mice were transduced with adeno-LacZ or -Cre and 24 h later incubated with palmitate and then insulin as in FIG. 92A. Lysates were probed for p-Akt, total Akt, β-actin (upper panel), p-GSK3β, total GSK3β, p-FoxO1 and total FoxO1 by immunoblot or immunoprecipitated for IR and IRS-1 and then assayed by immunoblot for the total level of the respective proteins or for phospho-Tyr (lower panel). FIG. 92C. Primary human HCs (metabolism-controlled) were transduced with adeno-LacZ or -K43A-CaMKII at an MOI of 30 and then 36 h later incubated with either BSA control or 0.2 mM palmitate for 10 h, with the last 5 h in serum-free media. […]

## tunicamycin
[1]
  ATF4: increased

## Cl.Cl.O=S(=O)(NCCNCC=Cc1ccc(Br)cc1)c1cccc2cnccc12 [H89, N-[2-[[3-(4-Bromophenyl)-2-propenyl]amino]ethyl]-5-isoquinolinesulfonamide dihydrochloride]
[2]; HCs pre-treated with inhibitor, then glucagon
  glucagon-induced CaMKII phosphorylation: markedly inhibited
[3]
  Forskolin-Induced IP3R Activation: Suppresses
[4]
  cytosolic calcium mobilization in response to glucagon (and forskolin): partially reversed

## CCCCCCCCCCCCCCCC(=O)O [palmitate]
[5]
  dach1 and dach2 mRNA levels: induces
[2]; ER stress activation
  p-CaMKIIγ in HCs: increased
[6]
  TRB3 levels: increase
[7]
  insulin-induced p-Akt signal: lowered
